The test system of the test is firefly luciferase activity. Nature of the test: Dual-Glo firefly/renilla luciferase reporter assay in cells. The test is classed as cell-based. (In general: Reporter assays use an easily measured gene product as a stand-in for the process of interest.)
Setting [1] is: 24 hrs compound treatment, starting from 3 uM, 1:3 dilution, 10 points, read-out: Firefly Luciferase IC50.
The mark [2] stands for this setting: 24 h, read-out: Firefly Luciferase IC50 (μM).

Read-outs that look alike come from different tables or passages of the source.

As a reminder, the IC50 is the concentration that gives 50% inhibition. Turning to `COCCn1nnc(-c2ccccc2Nc2ccc(C(F)(F)F)cc2)n1` [Compound 173, 2-(2-(2-methoxyethyl)-2H-tetrazol-5-yl)-N-(4-(trifluoromethyl)phenyl)aniline], under setting [1], the IC50 was under 0.1 µM.

For `OC1(Cn2nnc(-c3ccccc3Nc3ccc(C(F)(F)F)cc3)n2)COC1` [Compound 186, 3-((5-(2-((4-(trifluoromethyl)phenyl)amino)phenyl)-2H-tetrazol-2-yl)methyl) oxetan-3-ol], under setting [1], the IC50 is under 0.1 µM.

`OCCn1nnc(-c2cc(F)ccc2Nc2ccc(C(F)(F)F)cc2)n1` [Compound 175, 2-[5-[5-fluoro-2-[4-(trifluoromethyl)anilino]phenyl]tetrazol-2-yl]ethanol]: under setting [1], the IC50 was under 0.1 µM.

On to `OCCn1nnc(-c2cc(OC(F)(F)F)ccc2Nc2ccc(C(F)(F)F)cc2)n1` [Compound 261, 2-(5-(5-(trifluoromethoxy)-2-((4-(trifluoromethyl)phenyl)amino)phenyl)-2H-tetrazol-2-yl)ethanol], for which the IC50 under setting [2] was 0.1 to 1 µM.

As for `O=C1NCC(Cn2nnc(-c3ccccc3Nc3ccc(C(F)(F)F)cc3)n2)N1` (stereo not shown) [Compound 167, 4-((5-(2-((4-(trifluoromethyl)phenyl)amino)phenyl)-2H-tetrazol-2-yl)methyl)imidazolidin-2-one], the IC50 under setting [1] is 0.1 to 1 µM.

Regarding `CC(CO)n1nnc(-c2ccccc2Nc2ccc(C(F)(F)F)cc2)n1` (stereo not shown) [Compound 125, 2-[5-[2-[4-(trifluoromethyl)anilino]phenyl]tetrazol-2-yl]propan-1-ol], under setting [1], the IC50 is under 0.1 µM.

As to `OC1(Cn2nnc(-c3ccccc3Nc3ccc(C(F)(F)F)cc3)n2)CCCC1` [Compound 152, 1-((5-(2-((4-(Trifluoromethyl)phenyl)amino)phenyl)-2H-tetrazol-2-yl)methyl)cyclopentanol], the IC50 under setting [1] is under 0.1 µM.

Regarding `OCCn1nnc(-c2ccccc2Nc2cccc(F)c2)n1` [Compound 10, 2-(5-(2-((3-fluorophenyl)amino)phenyl)-2H-tetrazol-2-yl)ethanol], under setting [2], the IC50 was 0.1 to 1 µM.

As to `OCCn1nnc(-c2ccccc2Nc2cccc(C(F)(F)F)c2)n1` [Compound 3, 2-[5-[2-[3-(trifluoromethyl)anilino]phenyl]tetrazol-2-yl]ethanol], under setting [1], the IC50 was in the range of 1 to 5 µM.

Turning to `O[C@@H]1CCC[C@@H]1n1nnc(-c2ccccc2Nc2ccc(C(F)(F)F)cc2)n1` [Compound 200, (1R,2S)-2-(5-(2-((4-(trifluoromethyl)phenyl)amino)phenyl)-2H-tetrazol-2-yl)cyclopentan-1-ol], the IC50 under setting [1] lay within 0.1 to 1 µM.

`CCc1ccc(Nc2ccccc2-c2nnn(CCO)n2)cc1` [Compound 9, 2-[5-[2-(4-ethylanilino)phenyl]tetrazol-2-yl]ethanol]: the IC50 under setting [2] lay in the range of 0.1 to 1 µM.

`CCOC(=O)Cn1cc(-c2ccccc2Nc2ccc(C(F)(F)F)cc2)cn1` [Compound 60, ethyl 2-(4-(2-((4-(trifluoromethyl)phenyl)amino)phenyl)-1H-pyrazol-1-yl)acetate]: under setting [1], the IC50 was under 0.1 µM.

As to `OC(Cn1nnc(-c2ccccc2Nc2ccc(C(F)(F)F)cc2)n1)C1CC1` (stereo not shown) [Compound 127, 1-cyclopropyl-2-[5-[2-[4-(trifluoromethyl)anilino]phenyl]tetrazol-2-yl]ethanol], the IC50 under setting [1] is under 0.1 µM.

Regarding `FC(F)(F)c1ccc(Nc2ccccc2-c2nnn(C3COC3)n2)cc1` [Compound 123, 2-[2-(oxetan-3-yl)tetrazol-5-yl]-N-[4-(trifluoromethyl)phenyl]aniline], under setting [1], the IC50 is under 0.1 µM.

Take `Cn1nc(-c2ccccc2Nc2ccc(C(F)(F)F)cc2)cc1CCO` [Compound 196, 2-(1-methyl-3-(2-((4-(trifluoromethyl)phenyl)amino)phenyl)-1H-pyrazol-5-yl)ethan-1-ol]: the IC50 under setting [1] lay in the range of 1 to 5 µM.

For the compound `CNCCCn1nnc(-c2ccccc2Nc2ccc(C(F)(F)F)cc2)n1` [Compound 220, 2-(2-(3-(methylamino)propyl)-2H-tetrazol-5-yl)-N-(4-(trifluoromethyl)phenyl) Aniline], the IC50 under setting [1] fell in the range of 1 to 5 µM.

As for `O=C(Cn1nnc(-c2ccccc2Nc2ccc(C(F)(F)F)cc2)n1)NO` [Compound 113, 2-[5-[2-[4-(trifluoromethyl)anilino]phenyl]tetrazol-2-yl]ethanehydroxamic acid], the IC50 under setting [2] was 0.1 to 1 µM.

`NCCn1nnc(-c2ccccc2Nc2ccc(C(F)(F)F)cc2)n1` [Compound 228, 2-(2-(2-aminoethyl)-2H-tetrazol-5-yl)-N-(4-(trifluoromethyl)phenyl)aniline]: the IC50 under setting [1] was in the range of 0.1 to 1 µM.

Take `OCCn1nnc(-c2cccnc2Nc2ccc(C(F)(F)F)cc2)n1` [Compound 69, 2-(5-(2-((4-(trifluoromethyl)phenyl)amino)pyridin-3-yl)-2H-tetrazol-2-yl)ethanol]: under setting [2], the IC50 lay in the range of 0.1 to 1 µM.

For `OCCn1nnc(-c2ccccc2Nc2ccc(F)cc2F)n1` [Compound 28, 2-(5-(2-((2,4-difluorophenyl)amino)phenyl)-2H-tetrazol-2-yl)ethan-1-ol], the IC50 under setting [1] lay within 0.1 to 1 µM.

`O[C@@H]1CNC[C@H]1n1nnc(-c2ccccc2Nc2ccc(C(F)(F)F)cc2)n1` [Compound 233, (3R,4R)-4-(5-(2-((4-(trifluoromethyl)phenyl)amino)phenyl)-2H-tetrazol-2-yl)pyrrolidin-3-ol]: the IC50 under setting [1] fell in the range of 0.1 to 1 µM.

For the compound `CC(=O)N1CCCC(O)(Cn2nnc(-c3ccccc3Nc3ccc(C(F)(F)F)cc3)n2)C1` (stereo not shown) [Compound 155, 1-(3-hydroxy-3-((5-(2-((4-(trifluoromethyl)phenyl)amino)phenyl)-2H-tetrazol-2-yl)methyl)piperidin-1-yl) Ethanone], the IC50 under setting [1] lay in the range of 0.1 to 1 µM.

For `CN(C)CCCn1nnc(-c2ccccc2Nc2ccc(C(F)(F)F)cc2)n1` [Compound 62, 2-(2-(3-(dimethylamino)propyl)-2H-tetrazol-5-yl)-N-(4-(trifluoromethyl)phenyl) Aniline], the IC50 under setting [1] is 1 to 5 µM.

For `FC(F)(F)c1ccc(Nc2ccccc2-c2nnn(-c3ccccn3)n2)cc1` [Compound 140, 2-[2-(2-pyridyl)tetrazol-5-yl]-N-[4-(trifluoromethyl)phenyl]aniline], under setting [1], the IC50 is 0.1 to 1 µM.

Take `OC1(Cn2nnc(-c3ccccc3Nc3ccc(C(F)(F)F)cc3)n2)CNC1` [Compound 157, 3-[[5-[2-[4-(trifluoromethyl)anilino]phenyl]tetrazol-2-yl]methyl]azetidin-3-ol]: under setting [1], the IC50 lay in the range of 0.1 to 1 µM.

As to `O=C1NCC(Cn2nnc(-c3ccccc3Nc3ccc(C(F)(F)F)cc3)n2)O1` (stereo not shown) [Compound 136, 5-((5-(2-((4-(trifluoromethyl)phenyl)amino)phenyl)-2H-tetrazol-2-yl)methyl)oxazolidin-2-one], the IC50 under setting [1] lay within 0.1 to 1 µM.

In the case of `FC(F)(F)OCCn1nnc(-c2ccccc2Nc2ccc(C(F)(F)F)cc2)n1` [Compound 185, 2-(2-(2-(trifluoromethoxy)ethyl)-2H-tetrazol-5-yl)-N-(4-(trifluoromethyl)phenyl)aniline], the IC50 under setting [1] fell in the range of 0.1 to 1 µM.

Consider `Cc1c(-c2ccccc2Nc2ccc(C(F)(F)F)cc2)cnn1CCO` [Compound 84, 2-[5-methyl-4-[2-[4-(trifluoromethyl)anilino]phenyl]pyrazol-1-yl]ethanol], for which the IC50 under setting [1] is 1 to 5 µM.

With `CCOC(=O)Cn1cc(-c2ccccc2Nc2cccc(C(F)(F)F)c2)nn1` [Compound 18, Ethyl 2-[4-[2-[3-(trifluoromethyl)anilino]phenyl]triazol-1-yl]acetate], the IC50 under setting [2] lay within 1 to 5 µM.

As to `CNC(=O)Cn1nnc(-c2ccccc2Nc2ccc(C(F)(F)F)cc2)n1` [Compound 42, N-methyl-2-[5-[2-[4-(trifluoromethyl)anilino]phenyl]tetrazol-2-yl]acetamide], the IC50 under setting [1] is under 0.1 µM.

As to `FC(F)(F)c1ccc(Nc2ccccc2-c2nnn(C3CCCOC3)n2)cc1` (stereo not shown) [Compound 120, 2-(2-tetrahydropyran-3-yltetrazol-5-yl)-N-[4-(trifluoromethyl)phenyl]aniline], the IC50 under setting [1] fell in the range of 0.1 to 1 µM.

As for `CCOC(=O)C(C)n1nnc(-c2ccccc2Nc2ccc(C(F)(F)F)cc2)n1` (stereo not shown) [Compound 116, ethyl 2-[5-[2-[4-(trifluoromethyl)anilino]phenyl]tetrazol-2-yl]propanoate], the IC50 under setting [1] is under 0.1 µM.

As for `OC1(Cn2nnc(-c3ccccc3Nc3ccc(C(F)(F)F)cc3)n2)CCOC1` (stereo not shown) [Compound 151, 3-[[5-[2-[4-(trifluoromethyl)anilino]phenyl]tetrazol-2-yl]methyl]tetrahydro furan-3-ol], under setting [1], the IC50 was under 0.1 µM.

In the case of `OCCn1nnc(-c2ccccc2Nc2ccc(C(F)(F)F)c(Cl)c2)n1` [Compound 246, 2-(5-(2-((3-chloro-4-(trifluoromethyl)phenyl)amino)phenyl)-2H-tetrazol-2-yl)ethanol], under setting [1], the half-maximal inhibitory concentration (IC50) was under 0.1 µM.

`O=C1NC(Cn2nnc(-c3ccccc3Nc3ccc(C(F)(F)F)cc3)n2)CO1` (stereo not shown) [Compound 180, 4-((5-(2-((4-(trifluoromethyl)phenyl)amino)phenyl)-2H-tetrazol-2-yl)methyl)oxazolidin-2-one]: the IC50 under setting [1] lay in the range of 0.1 to 1 µM.

As for `CC(C)C(=O)Cn1nnc(-c2ccccc2Nc2ccc(C(F)(F)F)cc2)n1` [Compound 128, 3-methyl-1-[5-[2-[4-(trifluoromethyl)anilino]phenyl]tetrazol-2-yl]butan-2-one], the IC50 under setting [1] fell in the range of 0.1 to 1 µM.

Take `CC(CN)n1nnc(-c2ccccc2Nc2ccc(C(F)(F)F)cc2)n1` (stereo not shown) [Compound 218, 2-(2-(1-aminopropan-2-yl)-2H-tetrazol-5-yl)-N-(4-(trifluoromethyl)phenyl) Aniline]: the IC50 under setting [1] is under 0.1 µM.

The values above are taken from patent US11186554B2, “Non-fused tricyclic compounds” (VIVACE THERAPEUTICS, INC., priority 2017, dated 2021).
